The record followed here is paper PMC11641365, “Evaluation of In Vitro Biological Activity of Flavanone/Chromanone Derivatives: Molecular Analysis of Anticancer Mechanisms in Colorectal Cancer” (International Journal of Molecular Sciences, 2024).

The test system of one assay is HCT 116. Briefly: MTT cell viability assay. It counts as cell-based. The note with it: Homo sapiens, 24 h incubation with compound, mean ± SD of three experiments, read-out: Cytotoxic effect, IC50. How it is done:
The cytotoxic activity of the 3-benzylideneflavanones, 3-benzylidenechromanones derivatives (compounds 1, 2, 3, 4, 5) and 5′-(3-methoxyphenyl)-2-phenyl-4′,5′-dihydro-4H-spiro[chromano-3,3′-pirazol]-4-one (compound 3a) was evaluated using the MTT assay (4,5-dimethylthiazol-2-yl)-2,5-diphenyltetrazoliumbromide), a colorimetric method that quantifies cell viability.
Cell viability was determined using the metabolic microplate spectrophotometric assay with Methylthiazolyl diphenyltetrazolium bromide (MTT) (Sigma-Aldrich; St. Louis, MO, USA). The MTT method belongs to metabolic tests for determining cell viability and consists of measuring the absorbance of a violet solution of formazan, a product of the reduction of a water-soluble yellow MTT by oxidoreductive enzymes (mainly mitochondrial succinate dehydrogenase) of living cells. The amount of the reaction product (water-insoluble formazan crystals) is proportional to the number of living and metabolically active cells in the sample. In the case of damaged or dead cells, formazan is formed in smaller amounts, or it is not formed.
The appropriate number of cells for a given cell line (6–8 × 10^3 cells/mL) were seeded onto colorless, sterile 96-well microplates (Nunc, Roskilde, Denmark) in the number appropriate for a given cell line. After 24 h of culture, various concentrations of the studied compounds (10^−7–10^−5 M) freshly prepared in DMSO (final concentration DMS < 0.1%) and diluted with complete culture medium were added and incubated in a CO2 incubator for 24 h. After this time, the medium was removed; the cell monolayer was washed twice with sterile PBS solution; and fresh culture medium was added to the microplate wells. After 48 h of cell culture, the MTT test was performed. A volume of 50 μL of tetrazolium salt solution (final concentration 0.05 mg/mL) was added to each microplate well. The microplate was placed for 3–4 h (depending on the cell line) in a CO2 incubator. After incubation, 100 μL of DMSO was added to the wells of the microplate to dissolve the purple formazan crystals formed in the living cell environment. The absorbance of the formazan solution, after gentle mixing, was read at a wavelength of λ = 580 nm and a reference wavelength of λ = 720 nm (Biotek Power Wave HT, Biotek Instruments, Winooski, VT, USA). The percentage of living cells was calculated by comparing the absorbance value of the tested samples with the absorbance value of the control (cells not treated with compounds). The absorbance of the control was taken as 100%.

Assay [1] concerns HT-29. Briefly: Superoxide anion level, DHE probe. It counts as cell-based, human. Particulars: compound at IC50, 24 h, vs control. How it is done: Superoxide anion (O2^•−) levels were quantified using a microplate spectrofluorometric assay with dihydroethidium (DHE) (Life Technologies, Carlsbad, CA, USA). DHE is a well-established fluorogenic probe for intracellular superoxide detection. […] The reaction between superoxide and DHE produces a highly specific red fluorescent product, 2-hydroxyethidium (2-OH-E ^+).
(§1) Cells were seeded in black 96-well fluorometric microplates at a density of 10 × 10^3 cells/mL. […] Following compound incubation, the medium was removed, and the cell monolayers were washed twice with HBSS (140 mM NaCl, 5 mM KCl, 0.8 mM MgCl2, 1.8 mM CaCl2, 1 mM Na2HPO4, 10 mM HEPES, and 1% glucose). A volume of 50 µL of DHE solution in HBSS (final concentration 5 μM) was added to each well, and the cells were incubated for 30 min in the dark at 37 °C. After incubation with the DHE, fluorescence measurements were conducted using a Perkin-Elmer LS-5B spectrofluorometer (Waltham, MA, USA) at the following excitation and fluorescence emission wavelengths: λex = 498 nm/λem = 582 nm. The fluorescence intensity of control cells was arbitrarily assigned a value of 100%. The results were expressed as percentages of control, calculated by comparing the fluorescence intensity ratio of the test samples to controls (100%). The fluorescence of samples was denoted as Δf in relation to the control.

Assay [2] relates to HT-29. Nature of the assay: Hydrogen peroxide level, H2DCFDA probe. It counts as cell-based, human. The note with it: compound at IC50, 24 h, vs control. How it is done: Cellular H2O2 levels were assessed using 2′,7′-dichlorodihydrofluorescein diacetate (H2DCFDA, Sigma-Aldrich, St. Louis, MO, USA), a well-established fluorogenic probe for intracellular hydrogen peroxide detection. H2DCFDA readily diffuses across the cell membrane and is subsequently hydrolyzed by intracellular esterases to non-fluorescent H2DCF. Oxidation of H2DCF by ROS generates highly fluorescent 2′,7′-dichlorofluorescein (DCF), which accumulates in the cytosol. […] The fluorescence intensity of DCF is directly proportional to the concentration of ROS within the cell.
as §1, with “H2DCFDA” for “DHE”, “H2DCFDA,” for “DHE,”, “(MA,” for “(Waltham, MA,”, “522” for “582”

Regarding `O=C1/C(=C/c2ccccc2)COc2ccccc21` [Compound 1], the IC50 (in general, the concentration that gives 50% inhibition) with HCT 116 is 10.1 ± 1.3 µM. In the assay on HT-29 [1], the “Increase in O2−• (superoxide anion) levels” value is “approximately 40%”. Also, the “Increase in H2O2 levels” value with HT-29 [2] is on record as “approximately 25%”.
As for `COc1cccc(/C=C2/C(=O)c3ccccc3OC2c2ccccc2)c1` (stereo not drawn) [Compound 3], the IC50 in the assay on HCT 116 amounted to 18.6 ± 1.4 µM.
As to `O=C1/C(=C/c2ccccc2)C(c2ccccc2)Oc2ccccc21` (stereo not drawn) [Compound 5], in the assay with HT-29 [1], the “Increase in O2−• (superoxide anion) levels” value is reported as about 35%. The “Increase in H2O2 levels” value in the assay with HT-29 [2] is listed as “around 15%”.
